Results: US11498899B2, “Nitrone herbicides” (FMC Corporation, priority 2016, dated 2022)

Tests used:
[1] = test system: barnyardgrass (Echinochloa crus-galli); assay: Test A preemergence, visual injury rating 0-100 (0 no effect, 100 complete control); assay type: in vivo; conditions: for Barnyardgrass plant response rating (0 to 100 scale): 125 g ai/ha; for Barnyardgrass plant response rating: 500 g ai/ha, 0 to 100 scale
[2] = test system: foxtail, green (green foxtail, Setaria viridis); assay: Test A preemergence, visual injury rating 0-100; assay type: in vivo
[3] = test system: kochia (Kochia scoparia); assay: Test A preemergence, visual injury rating 0-100; assay type: in vivo; conditions: for Kochia plant response rating: 0 to 100 scale
[4] = test system: pigweed (Amaranthus retroflexus); assay: Test A preemergence, visual injury rating 0-100; assay type: in vivo; conditions: for Pigweed plant response rating: 0 to 100 scale
[5] = test system: ragweed (common ragweed, Ambrosia elatior); assay: Test A preemergence, visual injury rating 0-100; assay type: in vivo; conditions: for Ragweed plant response rating: 0 to 100 scale
[6] = test system: ryegrass, Italian (Italian ryegrass, Lolium multiflorum); assay: Test A preemergence, visual injury rating 0-100; assay type: in vivo; conditions: for Ryegrass, Italian plant response rating: 0 to 100 scale
[7] = test system: barnyardgrass (Echinochloa crus-galli); assay: Test A postemergence, visual injury rating 0-100; assay type: in vivo; conditions: 0 to 100 scale
[8] = test system: blackgrass (Alopecurus myosuroides); assay: Test A postemergence, visual injury rating 0-100; assay type: in vivo; conditions: 0 to 100 scale
[9] = test system: corn (Zea mays); assay: Test A postemergence, visual injury rating 0-100; assay type: in vivo; conditions: 0 to 100 scale
[10] = test system: foxtail, green (green foxtail, Setaria viridis); assay: Test A postemergence, visual injury rating 0-100; assay type: in vivo; conditions: 0 to 100 scale
[11] = test system: kochia (Kochia scoparia); assay: Test A postemergence, visual injury rating 0-100; assay type: in vivo; conditions: 0 to 100 scale
[12] = test system: pigweed (Amaranthus retroflexus); assay: Test A postemergence, visual injury rating 0-100; assay type: in vivo; conditions: 0 to 100 scale
[13] = test system: ragweed (common ragweed, Ambrosia elatior); assay: Test A postemergence, visual injury rating 0-100; assay type: in vivo; conditions: 0 to 100 scale
[14] = test system: ryegrass, Italian (Italian ryegrass, Lolium multiflorum); assay: Test A postemergence, visual injury rating 0-100; assay type: in vivo; conditions: 0 to 100 scale
[15] = test system: wheat (Triticum aestivum); assay: Test A postemergence, visual injury rating 0-100; assay type: in vivo; conditions: 0 to 100 scale
[16] = test system: ducksalad (Heteranthera limosa); assay: Test B flooded paddy test, visual rating 0-100; conditions: Flood, 250 g ai/ha, applied to paddy water, rated after 13 to 15 days
[17] = test system: barnyardgrass (Echinochloa crus-galli); assay: Test B flooded paddy test, visual rating 0-100; conditions: Flood, 250 g ai/ha, applied to paddy water, rated after 13 to 15 days
[18] = test system: rice (Oryza sativa); assay: Test B flooded paddy test, visual rating 0-100 (0 no effect, 100 complete control); conditions: Flood, 250 g ai/ha, applied to paddy water, rated after 13 to 15 days
[19] = test system: foxtail, giant (giant foxtail, Setaria faberii); assay: Test A preemergence, visual injury rating 0-100; assay type: in vivo
[20] = test system: foxtail, giant (giant foxtail, Setaria faberii); assay: Test A postemergence, visual injury rating 0-100; assay type: in vivo; conditions: 0 to 100 scale
[21] = test system: galium (catchweed bedstraw, Galium aparine); assay: Test A postemergence, visual injury rating 0-100; assay type: in vivo; conditions: 0 to 100 scale

| SMILES | Barnyardgrass plant response rating (0 to 100 scale) [1] | Barnyardgrass plant response rating [1] | Kochia plant response rating (0 to 100 scale) ([3]; 125 g ai/ha) | Pigweed plant response rating (0 to 100 scale) ([4]; 125 g ai/ha) | Ragweed plant response rating (0 to 100 scale) ([5]; 125 g ai/ha) | Ryegrass, Italian plant response rating (0 to 100 scale) ([6]; 125 g ai/ha) | Barnyardgrass plant response rating ([7]; 125 g ai/ha) | Barnyardgrass plant response rating ([7]; 500 g ai/ha) | Blackgrass plant response rating ([8]; 125 g ai/ha) | Blackgrass plant response rating ([8]; 500 g ai/ha) | Corn plant response rating ([9]; 125 g ai/ha) | Corn plant response rating ([9]; 500 g ai/ha) | Kochia plant response rating ([11]; 125 g ai/ha) | Kochia plant response rating ([11]; 500 g ai/ha) | Pigweed plant response rating ([12]; 125 g ai/ha) | Pigweed plant response rating ([12]; 500 g ai/ha) | Ragweed plant response rating ([13]; 125 g ai/ha) | Ragweed plant response rating ([13]; 500 g ai/ha) | Ryegrass, Italian plant response rating ([14]; 500 g ai/ha) | Wheat plant response rating ([15]; 125 g ai/ha) | further results |
| --- | --- | --- | --- | --- | --- | --- | --- | --- | --- | --- | --- | --- | --- | --- | --- | --- | --- | --- | --- | --- | --- |
| CC1=[N+]([O-])[C@H](C(=O)Nc2cccc(F)c2F)[C@@H](c2ccc3c(c2)OC(F)(F)O3)C1 (relative stereo) [Compound 25, rel-(2S,3R)-3-(2,2-Difluoro-1,3-benzodioxol-5-yl)-N-(2,3-difluorophenyl)-3,4-dihydro-5-methyl-2H-pyrrole-2-carboxamide 1-oxide] | 90 | 90 | 50 | 80 | 50 | 80 | 70 | 90 | 20 | 40 | 60 | 80 | 60 | 60 | 60 | 70 | 40 | 50 | 50 | 70 | Foxtail, Green plant response rating (0 to 100 scale) ([2]; 125 g ai/ha): 90; Foxtail, Green plant response rating ([2]; 500 g ai/ha, 0 to 100 scale): 90; Kochia plant response rating ([3]; 500 g ai/ha): 80; Pigweed plant response rating ([4]; 500 g ai/ha): 90; Ragweed plant response rating ([5]; 500 g ai/ha): 100; Ryegrass, Italian plant response rating ([6]; 500 g ai/ha): 50; Foxtail, Green plant response rating ([10]; 125 g ai/ha): 40; Foxtail, Green plant response rating ([10]; 500 g ai/ha): 90; Ryegrass, Italian plant response rating ([14]; 125 g ai/ha): 40; Wheat plant response rating ([15]; 500 g ai/ha): 90; Ducksalad plant response rating (0 to 100 scale) [16]: 90; Barnyardgrass plant response rating (0 to 100 scale) [17]: 75; Rice plant response rating (0 to 100 scale) [18]: 0 |
| CC1=[N+]([O-])C(C(=O)Nc2ccncc2C(F)(F)F)C(c2ccc(C(F)(F)F)cc2)C1 (racemic) [Compound 36] | 70 | 60 | 0 | 0 | 0 | 10 | 0 | 0 | 20 | 20 | 20 | 0 | 0 | 0 | 0 | 0 | 0 | 0 | 20 | 0 | Foxtail, Green plant response rating (0 to 100 scale) ([2]; 125 g ai/ha): 0; Foxtail, Green plant response rating (0 to 100 scale) ([2]; 500 g ai/ha): 100; Kochia plant response rating (0 to 100 scale) ([3]; 500 g ai/ha): 90; Pigweed plant response rating (0 to 100 scale) ([4]; 500 g ai/ha): 60; Ragweed plant response rating (0 to 100 scale) ([5]; 500 g ai/ha): 80; Ryegrass, Italian plant response rating (0 to 100 scale) ([6]; 500 g ai/ha): 60; Foxtail, Green plant response rating ([10]; 125 g ai/ha): 0; Foxtail, Green plant response rating ([10]; 500 g ai/ha): 20; Wheat plant response rating ([15]; 500 g ai/ha): 0; Ducksalad plant response rating (0 to 100 scale) [16]: 0; Barnyardgrass plant response rating (0 to 100 scale) [17]: 30; Rice plant response rating (0 to 100 scale) [18]: 0 |
| CC1=[N+]([O-])C(C(=O)Nc2ccc(F)c(F)c2F)C(c2ccc(C(F)(F)F)cc2)C1 (racemic) [Compound 38] | 90 | 100 | 0 | 30 | 30 | 30 | 90 | 60 | 40 | 70 | 20 | 70 | 0 | 0 | 0 | 30 | 0 | 20 | 20 | 30 | Foxtail, Green plant response rating (0 to 100 scale) ([2]; 125 g ai/ha): 100; Foxtail, Green plant response rating (0 to 100 scale) ([2]; 500 g ai/ha): 100; Kochia plant response rating (0 to 100 scale) ([3]; 500 g ai/ha): 90; Pigweed plant response rating (0 to 100 scale) ([4]; 500 g ai/ha): 80; Ragweed plant response rating (0 to 100 scale) ([5]; 500 g ai/ha): 90; Ryegrass, Italian plant response rating (0 to 100 scale) ([6]; 500 g ai/ha): 50; Foxtail, Green plant response rating ([10]; 125 g ai/ha): 70; Foxtail, Green plant response rating ([10]; 500 g ai/ha): 90; Ryegrass, Italian plant response rating ([14]; 125 g ai/ha): 30; Wheat plant response rating ([15]; 500 g ai/ha): 60; Ducksalad plant response rating (0 to 100 scale) [16]: 65; Barnyardgrass plant response rating (0 to 100 scale) [17]: 60; Rice plant response rating (0 to 100 scale) [18]: 0 |
| CC1=[N+]([O-])C(C(=O)Nc2ccccc2S(C)(=O)=O)C(c2ccc(C(F)(F)F)cc2)C1 (racemic) [Compound 43] | 20 | 100 | 0 | 40 | 0 | 0 | 20 | 60 | 0 | 30 | 0 | 0 | 0 | 0 | 0 | 0 | 0 | 0 | 20 | 0 | Foxtail, Green plant response rating (0 to 100 scale) ([2]; 125 g ai/ha): 80; Foxtail, Green plant response rating (0 to 100 scale) ([2]; 500 g ai/ha): 100; Kochia plant response rating (0 to 100 scale) ([3]; 500 g ai/ha): 80; Pigweed plant response rating (0 to 100 scale) ([4]; 500 g ai/ha): 90; Ragweed plant response rating (0 to 100 scale) ([5]; 500 g ai/ha): 100; Ryegrass, Italian plant response rating (0 to 100 scale) ([6]; 500 g ai/ha): 0; Foxtail, Green plant response rating ([10]; 125 g ai/ha): 20; Foxtail, Green plant response rating ([10]; 500 g ai/ha): 60; Ryegrass, Italian plant response rating ([14]; 125 g ai/ha): 0; Wheat plant response rating ([15]; 500 g ai/ha): 0; Ducksalad plant response rating (0 to 100 scale) [16]: 0; Barnyardgrass plant response rating (0 to 100 scale) [17]: 0; Rice plant response rating (0 to 100 scale) [18]: 0 |
| CC1=[N+]([O-])C(C(=O)Nc2cccc(F)c2F)C(c2c(F)cccc2Cl)C1 (racemic) [Compound 14] | 0 | 0 | 0 | 0 | 0 | 0 | 0 | 0 | 0 | 0 | 0 | 0 | 0 | 0 | 0 | 0 | 0 | 0 | 0 | 0 | Foxtail, Giant plant response rating (0 to 100 scale) ([19]; 125 g ai/ha): 0; Foxtail, Giant plant response rating ([19]; 500 g ai/ha, 0 to 100 scale): 0; Kochia plant response rating ([3]; 500 g ai/ha): 0; Pigweed plant response rating ([4]; 500 g ai/ha): 0; Ragweed plant response rating ([5]; 500 g ai/ha): 0; Ryegrass, Italian plant response rating ([6]; 500 g ai/ha): 0; Foxtail, Giant plant response rating ([20]; 125 g ai/ha): 0; Foxtail, Giant plant response rating ([20]; 500 g ai/ha): 0; Galium plant response rating ([21]; 125 g ai/ha): 0; Galium plant response rating ([21]; 500 g ai/ha): 0; Ryegrass, Italian plant response rating ([14]; 125 g ai/ha): 0; Wheat plant response rating ([15]; 500 g ai/ha): 0; Ducksalad plant response rating (0 to 100 scale) [16]: 20; Barnyardgrass plant response rating (0 to 100 scale) [17]: 40; Rice plant response rating (0 to 100 scale) [18]: 0 |
